Test results published in patent publication US12516022B2, “Derivatives of aryl hydrocarbon receptor agonists” (AZORA THERAPEUTICS, INC., priority 2021, dated 2026).

Test: Time course of conversion to indirubin in FaSSIF at 37° C.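 Further: test compound, about 1-3 mg in 5 mL FaSSIF, sampled and analysed by UPLC-MS with PDA UV (210-400 nm), QDa mass and evaporative light scattering detection.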
Type: physicochemical
Conditions: for Conversion to indirubin: over a 24 hour period

Structure (SMILES) | indirubin (FaSSIF 37° C. 24 h) [%] | indirubin methylene alcohol (FaSSIF 37° C. 24 h) [%] | starting material (prodrug compound) (FaSSIF 37° C. 24 h) [%] | indirubin (FaSSIF 37° C., 15 min) [%] | indirubin methylene alcohol (FaSSIF 37° C., 15 min) [%] | starting material (prodrug compound) (FaSSIF 37° C., 15 min) [%] | indirubin (FaSSIF 37° C., 30 min) [%] | indirubin methylene alcohol (FaSSIF 37° C., 30 min) [%] | starting material (prodrug compound) (FaSSIF 37° C., 30 min) [%] | indirubin (FaSSIF 37° C., 1 h) [%] | indirubin methylene alcohol (FaSSIF 37° C., 1 h) [%] | starting material (prodrug compound) (FaSSIF 37° C., 1 h) [%] | indirubin (FaSSIF 37° C., 2 h) [%] | indirubin methylene alcohol (FaSSIF 37° C., 2 h) [%] | starting material (prodrug compound) (FaSSIF 37° C., 2 h) [%] | Conversion to indirubin (FaSSIF 37° C.)
CN(C)CCN(C)CN1C(=O)/C(=C2\Nc3ccccc3C2=O)c2ccccc21 [drawing 253] | 87 | 7 | 0 | 90 | 7 | 0 | 90 | 7 | 0 | 89 | 6 | 0 | 85 | 6 | 0 | 80-100%
O=C1/C(=C2/C(=O)N(CN3CCCCC3)c3ccccc32)Nc2ccccc21 [drawing 254] |  |  |  |  |  |  |  |  |  |  |  |  |  |  |  | 80-100%
CN(C)C1CCN(CN2C(=O)/C(=C3\Nc4ccccc4C3=O)c3ccccc32)CC1 [drawing 256] | 72 | 6 | 0 | 61 | 5 | 30 | 62 | 5 | 31 | 58 | 5 | 32 | 70 | 7 | 22 | 60-80%
CC(=O)N1CCN(CN2C(=O)/C(=C3\Nc4ccccc4C3=O)c3ccccc32)CC1 [drawing 258] | 37 | 14 | 10 | 8 | 12 | 31 | 12 | 14 | 37 | 12 | 12 | 30 | 21 | 10 | 29 | 40-60%
O=C1/C(=C2/C(=O)N(CO)c3ccccc32)Nc2ccccc21 [drawing 259] | 17 |  | 73 | 12 |  | 81 | 15 |  | 82 | 14 |  | 80 | 17 |  | 79 | 20-40%
O=C1/C(=C2/C(=O)N(CN3CCC(F)(F)CC3)c3ccccc32)Nc2ccccc21 [drawing 260] | 40 | 0 | 52 | 45 | 0 | 54 | 29 | 0 | 39 | 18 | 0 | 37 | 49 | 0 | 51 | 20-40%
O=C1/C(=C2/C(=O)N(COS(=O)(=O)O)c3ccccc32)Nc2ccccc21 [drawing 262] | 12 | 83 | 0 | 7 | 79 | 0 | 14 | 73 | 0 | 7 | 81 | 0 | 7 | 83 | 0 | 0-20%
O=C1/C(=C2/C(=O)N(C(=O)NC3CCOCC3)c3ccccc32)Nc2ccccc21 [drawing 263] | 6 | 0 | 55 | 8 | 0 | 50 | 5 | 0 | 44 | 5 | 0 | 33 | 10 | 1 | 50 | 0-20%
CN1CCN(CN2C(=O)/C(=C3\Nc4ccccc4C3=O)c3ccccc32)CC1 [drawing 265] | 30 | 0 | 53 | 8 | 0 | 80 | 12 | 0 | 74 | 11 | 0 | 77 | 18 | 0 | 68 | 0-20%
O=C1/C(=C2/C(=O)N(CN3CCC3)c3ccccc32)Nc2ccccc21 [drawing 266] | 20 | 7 | 62 | 9 | 5 | 72 | 8 | 5 | 79 | 10 | 5 | 80 | 13 | 4 | 75 | 0-20%

Next, values leading:

indirubin (FaSSIF 37° C. 24 h) [%] | indirubin methylene alcohol (FaSSIF 37° C. 24 h) [%] | starting material (prodrug compound) (FaSSIF 37° C. 24 h) [%] | indirubin (FaSSIF 37° C., 15 min) [%] | indirubin methylene alcohol (FaSSIF 37° C., 15 min) [%] | starting material (prodrug compound) (FaSSIF 37° C., 15 min) [%] | indirubin (FaSSIF 37° C., 30 min) [%] | indirubin methylene alcohol (FaSSIF 37° C., 30 min) [%] | starting material (prodrug compound) (FaSSIF 37° C., 30 min) [%] | indirubin (FaSSIF 37° C., 1 h) [%] | indirubin methylene alcohol (FaSSIF 37° C., 1 h) [%] | starting material (prodrug compound) (FaSSIF 37° C., 1 h) [%] | indirubin (FaSSIF 37° C., 2 h) [%] | indirubin methylene alcohol (FaSSIF 37° C., 2 h) [%] | starting material (prodrug compound) (FaSSIF 37° C., 2 h) [%] | Conversion to indirubin (FaSSIF 37° C.) | Structure (SMILES)
100 | 0 | 0 | 100 | 0 | 0 | 100 | 0 | 0 | 100 | 0 | 0 | 100 | 0 | 0 | 80-100% | CCN(CC)CN1C(=O)/C(=C2\Nc3ccccc3C2=O)c2ccccc21 [drawing 252]
100 | 0 | 0 | 100 | 0 | 0 | 100 | 0 | 0 | 100 | 0 | 0 | 100 | 0 | 0 | 80-100% | O=C1/C(=C2/C(=O)N(CN3CCCC3)c3ccccc32)Nc2ccccc21 [drawing 255]
74 | 4 | 0 | 78 | 13 | 6 | 78 | 13 | 6 | 78 | 13 | 6 | 83 | 10 | 4 | 60-80% | CN(C)CCN(CCN(C)C)CN1C(=O)/C(=C2\Nc3ccccc3C2=O)c2ccccc21 [drawing 257]
24 | 7 | 46 | 5 | 0 | 69 | 8 | 3 | 80 | 6 | 0 | 64 | 7 | 4 | 65 | 20-40% | O=C1/C(=C2/C(=O)N(CN3CCOCC3)c3ccccc32)Nc2ccccc21 [drawing 261]
0 | 0 | 100 | 0 | 0 | 100 | 0 | 0 | 100 | 0 | 0 | 100 | 0 | 0 | 100 | 0-20% | CNCCNC(=O)N1C(=O)/C(=C2\Nc3ccccc3C2=O)c2ccccc21.Cl [drawing 264]
